What was measured:
[1] = system: Papillary muscle of right ventricle; test: Inhibition of the cardiotonic activity of isoproterenol (developed tension) in isolated papillary muscle, as index of inhibiting Ca²⁺ overload into cells; parameters: species or system male Hartley-strain guinea-pigs; conditions: Drug concentration 10⁻³ M; inhibition of developed tension increased by isoproterenol
Description: For evaluation of the extent of inhibiting Ca²⁺ overload into cells, which is the pharmacological activity of the compound of the present invention, inhibition of the cardiotonic activity of isoproterenol by the compounds of the present invention was measured.
That is to say, since isoproterenol has been known to cause Ca²⁺ overload by excessive Ca²⁺ influx into cardiac muscle cells (Fleckenstein A., Janke J., Doring H., Leder O.; Recent advances in Studies on cardiac structure and metabolism, Myocardial Biology, Vol. 4, pp. 563 - 580 (1974)), the compound which inhibits the activity of isoproterenol can inhibit Ca²⁺ overload into cells.
Papillary muscle of right ventricle isolated from male Hartley-strain guinea-pigs (body weight: 250 to 350 g) was suspended in an organ bath filled with a nutrient solution (Krebs-Henseleit solution). The temperature of the nutrient solution was maintained at 32 °C, and a gas mixture of 95 % oxygen and 5 % carbon dioxide was aerated. The papillary muscle was applied with a resting tension of about 0.5 g, and stimulated with platinum electrodes by an electric pulse wave of a duration of 1 msec, a frequency of 1 Hz and a voltage higher by 15 % than the threshold value. The developed tension of the papillary muscle was measured through a tension transducer and recorded with a polygraph. After the specimen was stabilized for about 90 minutes, isoproterenol ([…]) was added into the organ bath so that developed tension could be increased by 100 % or more, and at the point when the maximum reaction was obtained, the compounds of the present invention were added into the organ bath, and % inhibition of the developed tension increased by isoproterenol was measured.

isolated heart of rat = test: Protective effect on ischemic myocardium, Langendorff-perfused isolated heart (ischemia 90 minutes, then reperfusion); parameters: species or system Male Wister rats; conditions: for Developed tension (%): % of value in equilibration period, 30 minutes after reperfusion, Control 32.5; for Rise in resting tension: just before reperfusion, Control 0.72
Description: For the evaluation of the protective effect of ischemic myocardium, two parameters (rise in resting tension and decrease in developed tension), indices of myocardial injury, were measured in the myocardial ischemic model using isolated heart of rat.
It is reported that drugs which have the protective effect on ischemic myocardium attenuates the rise in resting tension and decrease in developed tension induced by Ca²⁺ overload into myocardial cells when the heart is exposed to ischemia. (Araki, H. & Lefer, AM.: Role of prostacyclin in the preservation of ischemic myocardial tissue in the perfused cat heart. Circ. Res., 47: 757-763, 1980).
Male Wister rats (250-350 g) were killed and their hearts excised. The hearts were then arranged for coronary perfusion with Krebs-Henseleit solution (37 °C, aerated with a gas mixture of 95 % O₂ - 5 % CO₂) according to the method of Langendorff. Tension development was monitored with a force displacement transducer attached via a cotton ligature to the ventricular apex with a resting tension of 1.5 g. After a equilibration period of 1 hour, myocardial ischemia was induced by lowering perfusion pressure from 80 cm H₂O to 12 cm H₂O for 90 minutes. The heart was then reperfused with the previous perfusion pressure of 80 cm H₂O. Rise in resting tension (g) just before reperfusion and developed tension (%) (% of value in equilibration period) 30 minutes after reperfusion were measured.

[2] = Acute toxicity, 50 % lethal dose (LD₅₀); conditions: mouse, in vivo, male mice
Description: Among compounds of the present invention, the compound No. 110 was tested for its acute toxicity.
Compound No. 110 was administered to male mice (18 - 25 g) for determination of 50 % lethal dose (LD₅₀). Two routes of administration tested were as follows: • 1) intravenous (into tail vein) administration in which calculation of LD₅₀ was according to up and down method and • 2) oral administration in which calculation of LD₅₀ was according to probit method. Compound No. 110 was diluted in physiological salt solution (0.9 % sodium chloride) for intravenous administration and distilled water for oral administration.

## CC(C)c1ccc(N2CCNCC2)c(S(=O)(=O)O)c1 [compound 111]
[1]
  Inhibition (%): 27.5%

## O=S(=O)(O)c1cc(Br)ccc1N1CCNCC1 [compound 94]
[1]
  Inhibition (%): 18.5%

## CCCc1ccc(N2CCNCC2)c(S(=O)(=O)O)c1.Cl [Compound No. 110, 2-(1-piperazinyl)-5-n-propylbenzenesulfonic acid hydrochloride]
Isolated heart of rat; Drug concentration 10⁻⁵ M
  Developed tension (%): 77.0%
  Rise in resting tension: 0.09 g
Isolated heart of rat; Drug concentration 10⁻⁶ M
  Developed tension (%): 65.4%
  Rise in resting tension: 0.33 g
Isolated heart of rat; Drug concentration 10⁻⁷ M
  Developed tension (%): 32.2%
  Rise in resting tension: 0.48 g
[2]; Intravenous administration (tail vein), up and down method
  LD50: 63 mg/kg
[2]; Oral administration, probit method
  LD50: 2800 mg/kg

## O=S(=O)(O)c1cc(-c2ccccc2)ccc1N1CCNCC1 [compound 91]
[1]
  Inhibition (%): 17.2%

## CCCc1ccc(N2CCCN(C)CC2)c(S(=O)(=O)O)c1 [compound 89]
Isolated heart of rat; Drug concentration 10⁻⁵ M
  Developed tension (%): 58.4%
  Rise in resting tension: 0.25 g

## O=S(=O)(O)c1cc(Cl)ccc1N1CCNCC1 [compound 93]
[1]
  Inhibition (%): 28.0%

## CCCc1ccc(N2CCN(Cc3ccc(OC)c(OC)c3OC)CC2)c(S(=O)(=O)O)c1 [Compound No. 69, 2-[4-(2,3,4-trimethoxybenzyl)-1-piperazinyl]-5-n-propylbenzenesulfonic acid]
[1]
  Inhibition (%): 21.4%

## CCCc1ccc(N2CCN(Cc3ccc(OC)c(OC)c3)CC2)c(S(=O)(=O)O)c1 [Compound No. 66]
[1]
  Inhibition (%): 52.4%

## Cc1ccc(N2CCNCC2)c(S(=O)(=O)O)c1 [Compound No. 12, 2-(1-piperazinyl)-5-methylbenzenesulfonic acid]
[1]
  Inhibition (%): 18.5%

Reference: patent publication EP0390654B1, “Aminobenzenesulfonic acid derivative” (Mitsubishi Chemical Corporation, priority 1989, dated 1990)
